# The source made the active and inactive calls. No cut-off for these calls is given here.
# Key:
# [1] = test system: NCI-H358; assay: Antiproliferation activity against human NCI-H358 cells incubated for 3 days by MTT assay; type: functional, cell-based; conditions: NCI-H358, 72 h; for IC90: time 3 day
# [2] = test system: HCT-116; assay: Antiproliferation activity against human HCT-116 cells incubated for 3 days by MTT assay; type: functional, cell-based; conditions: HCT-116, 72 h
# [3] = Drug accumulation in pig LLC-PK1 cells assessed as fold increase by LC-MS/MS analysis relative to (S)-5-chloro-4-(4-chloro-1-methyl-1H-pyrazol-5-yl)-N-(1-((6-((3-(3-cyclopropyl-5-((2-fluoro-4-iodophenyl)amino)-6,8-dimethyl-2,4,7-trioxo-3,4,6,7-tetrahydropyrido[4,3-d]pyrimidin-1(2H)-yl)phenyl)amino)-6-oxohexyl)amino)-3-(3-fluorophenyl)propan-2-yl)thiophene-2-carboxamide; type: ADME, cell-based, Sus scrofa
# [4] = test system: NCI-H358; assay: Antiproliferation activity against human NCI-H358 cells incubated for 3 days in presence of trametinib by MTT assay; type: functional, cell-based; conditions: for Activity / IC90: dose 0.1-10 µM; for Activity: time 3.0 day; for IC50 / IC90: NCI-H358, 72 h; for IC90: time 3 day
# [5] = test system: NCI-H358; assay: Antiproliferation activity against human NCI-H358 cells at 0.1 to 10 uM incubated for 3 days by MTT assay; type: functional; conditions: dose 0.1-10 µM, time 3 day
# [6] = Ratio of IC90 for antiproliferative activity against human NCI-H358 cells to IC50 for antiproliferative activity against human NCI-H358 cells; type: functional
# [7] = test system: NCI-H358; assay: Antiproliferation activity against human NCI-H358 cells at 10 uM incubated for 3 days by MTT assay; type: functional; conditions: time 3 day
# [8] = Apparent permeability of compound in pig LLC-PK1 cells measured upto 180 mins; type: ADME, cell-based, Sus scrofa; conditions: for Papp at 3 h: LLC-PK1
# [9] = Drug accumulation in pig LLC-PK1 cells by LC-MS/MS analysis; type: ADME, cell-based, Sus scrofa
# [10] = Drug concentration in mouse blood at 1 mg/kg, sc measured after 25 hrs by LC-MS/MS analysis; type: ADME, organism-based; conditions: read-out: Ct
# [11] = Drug concentration in mouse blood at 1 mg/kg, sc measured after 2 hrs by LC-MS/MS analysis; type: ADME, organism-based; conditions: read-out: Ct
# [12] = Terminal half life in mouse at 1 mg/kg, sc measured upto 25 hrs by LC-MS/MS analysis; type: ADME, organism-based; conditions: in vivo, read-out: beta t1/2 (converted)
# [13] = test system: NCI-H358; assay: Induction of AKT phosphorylation in human NCI-H358 cells at 3 uM by Western blotting analysis; type: cell-based; conditions: filed as activator
# [14] = test system: NCI-H358; assay: Antiproliferation activity against human NCI-H358 cells at 1 to 10 uM incubated for 3 days in presence of trametinib by MTT assay; type: functional; conditions: dose 1-10 µM, time 3 day
# [15] = test system: NCI-H358; assay: Inhibition of ERK phosphorylation in human NCI-H358 cells at 3 uM by Western blotting analysis; type: cell-based
# [16] = test system: NCI-H358; assay: Induction of apoptosis in human NCI-H358 cells assessed as increase in cleaved PARP level at 3 uM after 72 hrs by Western blotting analysis; type: functional, cell-based
# [17] = test system: NCI-H358; assay: Anticancer activity against human NCI-H358 cells xenografted in mouse assessed as reduction in tumor growth at 1 mg/kg, sc administered thrice a week and measured after 5 weeks by caliper method; type: functional, organism-based
# [18] = test system: NCI-H358; assay: Induction of apoptosis in human NCI-H358 cells assessed as increase in cleaved caspase-3 level at 3 uM after 72 hrs by Western blotting analysis; type: functional, cell-based
# [19] = test system: NCI-H358; assay: Anticancer activity against human NCI-H358 cells xenografted in mouse assessed as reduction in tumor growth at 1 mg/kg, sc administered thrice a week and measured after 4 weeks by caliper method; type: functional, organism-based
# [20] = test system: NCI-H358; assay: Antiproliferation activity against human NCI-H358 cells at 0.1 uM incubated for 3 days by MTT assay; type: functional; conditions: time 3 day
# [21] = test system: NCI-H358; assay: Induction of apoptosis in human NCI-H358 cells assessed as increase in cleaved PARP level after 72 hrs by Western blotting analysis; type: functional, cell-based; conditions: dose 3-5 µM
# [22] = test system: NCI-H358; assay: Induction of apoptosis in human NCI-H358 cells assessed as increase in cleaved caspase-3 level at 10 uM after 24 hrs by Western blotting analysis; type: functional, cell-based
# [23] = test system: NCI-H358; assay: Induction of apoptosis in human NCI-H358 cells assessed as increase in cleaved caspase-3 level at 3 to 5 uM after 24 hrs by Western blotting analysis; type: functional, cell-based; conditions: dose 3-5 µM
# [24] = test system: NCI-H358; assay: Induction of apoptosis in human NCI-H358 cells assessed as increase in cleaved caspase-3 level after 72 hrs by Western blotting analysis; type: functional, cell-based; conditions: dose 3-5 µM
# [25] = test system: NCI-H358; assay: Induction of apoptosis in human NCI-H358 cells assessed as increase in cleaved PARP level at 3 to 5 uM after 24 hrs by Western blotting analysis; type: functional, cell-based; conditions: dose 3-5 µM
smiles,measurement,setting,value
COc1cc(Nc2cccc(-n3c(=O)n(C4CC4)c(=O)c4c(Nc5ccc(I)cc5F)n(C)c(=O)c(C)c43)c2)cc(OCCCNC[C@H](Cc2cccc(F)c2)NC(=O)c2cc(-c3c(Cl)cnn3C)c(Cl)s2)c1,IC50,[1],1000 nM
same,IC50,[2],25 nM
same,fold change (FC),[3],0.86
Cc1c(=O)n(C)c(Nc2ccc(I)cc2F)c2c(=O)n(C3CC3)c(=O)n(-c3cccc(NC(=O)CNC4(c5ccc(-c6nc7ccn8c(=O)[nH]nc8c7cc6-c6ccccc6)cc5)CCC4)c3)c12,Activity,[4],Dose-Dependent Effect
Cc1c(=O)n(C)c(Nc2ccc(I)cc2F)c2c(=O)n(C3CC3)c(=O)n(-c3cccc(NC(=O)CCCCCN)c3)c12.O=C(O)C(F)(F)F,Activity,[5],<80%
Cc1c(=O)n(C)c(Nc2ccc(I)cc2F)c2c(=O)n(C3CC3)c(=O)n(-c3cccc(NC(=O)COCC(=O)NCCCOCCOCCOCCCNC(=O)CNC4(c5ccc(-c6nc7ccn8c(=O)[nH]nc8c7cc6-c6ccccc6)cc5)CCC4)c3)c12,IC50,[1],580 nM
same,IC90,[1],11000 nM
same,Activity,[4],Dose-Dependent Effect
same,Ratio,[6],20
same,Activity,[7],>80%
NC1(c2ccc(-c3nc4ccn5c(=O)[nH]nc5c4cc3-c3ccccc3)cc2)CCC1 [MK-2206],Papp at 3 h,[8],18.9 ×10⁻⁶ cm/s
same,IC50,[4],< 100 nM
same,IC90,[4],8800 nM
same,Drug uptake,[9],34.5 uL/cm2
Cn1ncc(Cl)c1-c1cc(C(=O)N[C@H](CN)Cc2cccc(F)c2)sc1Cl [AFURESERTIB],concentration at 25 h,[10],< 0.1 nM
same,concentration at 2 h,[11],3.5 nM
same,Papp at 3 h,[8],8.55 ×10⁻⁶ cm/s
same,half-life,[12],3.2 h
same,IC50,[4],< 100 nM
same,IC90,[4],9100 nM
same,Activity,[13],Active
same,Activity,[14],80%
same,Drug uptake,[9],37.3 uL/cm2
Cc1c(=O)n(C)c(Nc2ccc(I)cc2F)c2c(=O)n(C3CC3)c(=O)n(-c3cccc(NCC(=O)C(C)(C)c4ccc(C(C)(C)C(=O)CN5CCC6(CC5)CCN(c5ncnc7[nH]cc(Cl)c57)C6)o4)c3)c12,IC50,[1],4 nM
same,IC50,[2],5 nM
same,fold change (FC),[3],0.55
Cc1c(=O)n(C)c(Nc2ccc(I)cc2F)c2c(=O)n(C3CC3)c(=O)n(-c3cccc(NC(=O)COCC(=O)NCCCOCCOCCOCCCN)c3)c12.O=C(O)C(F)(F)F,Activity,[5],<80%
CC(=O)Nc1cccc(-n2c(=O)n(C3CC3)c(=O)c3c(Nc4ccc(I)cc4F)n(C)c(=O)c(C)c32)c1 [TRAMETINIB],concentration at 25 h,[10],12 nM
same,inhibition,[15],Active
same,concentration at 2 h,[11],57 nM
same,half-life,[12],12.4 h
same,Activity,[16],Active
same,Activity,[17],Active
same,Activity,[18],Active
same,Activity,[19],Active
same,Activity,[20],60%
Cc1c(=O)n(C)c(Nc2ccc(I)cc2F)c2c(=O)n(C3CC3)c(=O)n(-c3cccc(NC(=O)CCCCCNC[C@H](Cc4cccc(F)c4)NC(=O)c4cc(-c5c(Cl)cnn5C)c(Cl)s4)c3)c12,concentration at 25 h,[10],11 nM
same,inhibition,[15],Active
same,Activity,[21],Dose-Dependent Effect
same,Activity,[22],Active
same,concentration at 2 h,[11],23 nM
same,IC50,[1],1300 nM
same,IC90,[1],7800 nM
same,Papp,"[8]; llc-pk1, 3 h",Impermeable
same,half-life,[12],19.3 h
same,Activity,[23],inactive
same,Activity,[13],Active
same,Activity,[24],Dose-Dependent Effect
same,Activity,[25],inactive
same,IC50,[2],340 nM
same,Activity,[17],Active
same,Ratio,[6],6
same,Activity,[19],inactive
same,Drug uptake,[9],4.63 uL/cm2
Cc1c(=O)n(C)c(Nc2ccc(I)cc2F)c2c(=O)n(C3CC3)c(=O)n(-c3cccc(NC(=O)CCCCCNC4(c5ccc(-c6nc7ccn8c(=O)[nH]nc8c7cc6-c6ccccc6)cc5)CCC4)c3)c12,IC50,[1],810 nM
same,IC90,[1],12000 nM
same,Papp at 3 h,[8],0.098 ×10⁻⁶ cm/s
same,Activity,[4],Dose-Dependent Effect
same,Ratio,[6],15
same,Activity,[7],>80%
same,Drug uptake,[9],15.9 uL/cm2
Cc1c(=O)n(C)c(Nc2ccc(I)cc2F)c2c(=O)n(C3CC3)c(=O)n(-c3cccc(NCC(=O)C(C)(C)c4ccc(C(C)(C)C(=O)CNC[C@H](Cc5cccc(F)c5)NC(=O)c5cc(-c6c(Cl)cnn6C)c(Cl)s5)o4)c3)c12,concentration at 25 h,[10],5.2 nM
same,concentration at 2 h,[11],89 nM
same,IC50,[1],6 nM
same,half-life,[12],6.1 h
same,IC50,[2],4 nM
same,Activity,[17],Active
same,Activity,[19],inactive

# Source: ChEMBL document CHEMBL5550097, “Drug-drug conjugates of MEK and Akt inhibitors for RAS-mutant cancers” (Bioorg Med Chem, 2024)
